Measurements published in US9580444B2, “Polycyclic pyrazolinone derivative and herbicide comprising same as effective component thereof” (priority 2013, dated 2017).

How the values were obtained:
Assay type in all cases: in vivo
[1] = tested on: Cyperus difformis (smallflower umbrella plant); assay: Test Example-1: herbicidal effect by a treatment before weeds are generated under submerged conditions; details: 500 g a.i/ha, pre-emergence treatment, about 15 days after treatment, score 0-5
Procedure, shortened: (§1)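 Treatment is made before weed emergence: seeds sit in puddled, submerged paddy soil and receive the diluted wettable powder or emulsifiable concentrate into the water at a fixed dosage. Rating on a 0–5 scale follows after around 15 days.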

[2] = tested on: other annual broad leaf weeds (Lindernia procumbens, Rotala indica, Elatine triandra); assay: as above; details: 500 g a.i/ha, pre-emergence treatment, about 15 days after treatment, score 0-5
Procedure, shortened: as §1

[3] = tested on: Eleocharis acicularis (needle spikerush); assay: as above; details: 500 g a.i/ha, pre-emergence treatment, about 15 days after treatment, score 0-5
Procedure, shortened: as §1

[4] = tested on: Echinochloa oryzicola (barnyard grass); assay: as above; details: 500 g a.i/ha, pre-emergence treatment, about 15 days after treatment, score 0-5
Procedure, shortened: as §1

[5] = tested on: Scirpus juncoides (bulrush); assay: as above; details: 500 g a.i/ha, pre-emergence treatment, about 15 days after treatment, score 0-5
Procedure, shortened: as §1

[6] = tested on: Monochoria vaginalis (monochoria); assay: as above; details: 500 g a.i/ha, pre-emergence treatment, about 15 days after treatment, score 0-5
Procedure, shortened: as §1

[7] = tested on: Amaranthus viridis (green amaranthus); assay: Test Example-2: herbicidal effect by a soil treatment before weeds are generated under upland field conditions; details: application amount 500 g a.i/ha, soil spray treatment before weeds are generated, about 21 days after the treatment, score 0 to 5
Text: (§2) Using the formulation prepared according to the methods described above, the herbicidal effect of the bicyclic pyrazolinone derivative of the invention according to the methods shown in Test Examples below was examined. The herbicidal effect with respect to the test weeds or the phytotoxicity with respect to the test crops was examined according to the following criteria, and evaluated in six stage scores of 0 to 5. A vat having an area of 81 cm^2 and a depth of 3.5 cm was filled with upland soil, then, seeds of Amaranthus viridis (green amaranthus), Chenopodium album (common lambsquarters), and corn were seeded thereto, and the seeds were covered with soil of about 0.5 cm. Next day, a wettable powder or an emulsifiable concentrate of the compound of the present invention prepared according to Formulation Example was diluted, and a spray treatment was uniformly performed on the covered oil so as to be a predetermined dosage. The herbicidal effect with respect to the test weeds and the phytotoxicity with respect to corn about 21 days after the treatment were evaluated according to the evaluation criteria in six stages of 0 to 5 described above.

[8] = tested on: Chenopodium album (common lambsquarters); assay: as above; details: application amount 500 g a.i/ha, soil spray treatment before weeds are generated, about 21 days after the treatment, score 0 to 5
Text: as §2

[9] = tested on: corn; assay: Test Example-2: phytotoxicity by a soil treatment before weeds are generated under upland field conditions; details: application amount 500 g a.i/ha, soil spray treatment before weeds are generated, about 21 days after the treatment, score 0 to 5
Text: as §2

[10] = tested on: Amaranthus viridis (green amaranthus); assay: Test Example-4: herbicidal effect by a foliage treatment after weeds are generated under upland field conditions; details: 500 g a.i/ha, foliage treatment after emergence, about 14 days after treatment, score 0-5
Procedure, shortened: (§3)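 Sown seeds, under about 0.5 cm of soil cover in upland soil, grew for 14 days before compound application. A wettable powder or emulsifiable concentrate, diluted to a predetermined dosage, was sprayed over foliage in 4000 L/ha water, with scoring on a 0–5 scale after roughly 14 days.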

[11] = tested on: Abutilon theophrasti (velvetleaf); assay: as above; details: 500 g a.i/ha, foliage treatment after emergence, about 14 days after treatment, score 0-5
Procedure, shortened: as §3

[12] = tested on: Chenopodium album (common lambsquarters); assay: as above; details: 500 g a.i/ha, foliage treatment after emergence, about 14 days after treatment, score 0-5
Procedure, shortened: as §3

[13] = tested on: corn; assay: Test Example-4: phytotoxicity by a foliage treatment after weeds are generated under upland field conditions; details: 500 g a.i/ha, foliage treatment after emergence, about 14 days after treatment, score 0-5
Procedure, shortened: as §3

## C#CCOc1cc(-c2c(Cl)n3n(c2=O)CCCCC3)c(F)cc1F [Example 1-367]
[1]
  Herbicidal effect Cyperus difformis: 5 (Herbicidal effect/phytotoxicity was 90% or greater)
[2]
  Herbicidal effect Broadleaf weed: 5 (Herbicidal effect/phytotoxicity was 90% or greater)
[3]
  Herbicidal effect Eleocharis acicularis: 5 (Herbicidal effect/phytotoxicity was 90% or greater)
[4]
  Herbicidal effect Echinochloa oryzicola: 5 (Herbicidal effect/phytotoxicity was 90% or greater)
[5]
  Herbicidal effect Scirpus juncoides: 5 (Herbicidal effect/phytotoxicity was 90% or greater)
[6]
  Herbicidal effect Monochoria vaginalis: 5 (Herbicidal effect/phytotoxicity was 90% or greater)
[7]
  Herbicidal effect Amaranthus viridis: 5 (Herbicidal effect/phytotoxicity was 90% or greater)
[8]
  Herbicidal effect Chenopodium album: 5 (Herbicidal effect/phytotoxicity was 90% or greater)
[9]
  Phytotoxicity Corn: 0 (Herbicidal effect/phytotoxicity was 0% to 10%)

## Cc1ccc(Oc2cc(-c3c(Cl)n4n(c3=O)CCCC4)c(F)cc2Cl)c(O)c1 [Compound 3-40]
[7]
  Herbicidal effect Amaranthus viridis: 5 (Herbicidal effect/phytotoxicity was 90% or greater)
[8]
  Herbicidal effect Chenopodium album: 5 (Herbicidal effect/phytotoxicity was 90% or greater)
[9]
  Phytotoxicity Corn: 0 (Herbicidal effect/phytotoxicity was 0% to 10%)

## COc1cc(-c2c(Cl)n3n(c2=O)CCOCC3)c(F)cc1F [Example 1-89]
[1]
  Herbicidal effect Cyperus difformis: 5 (Herbicidal effect/phytotoxicity was 90% or greater)
[2]
  Herbicidal effect Broadleaf weed: 5 (Herbicidal effect/phytotoxicity was 90% or greater)
[3]
  Herbicidal effect Eleocharis acicularis: 5 (Herbicidal effect/phytotoxicity was 90% or greater)
[4]
  Herbicidal effect Echinochloa oryzicola: 5 (Herbicidal effect/phytotoxicity was 90% or greater)
[5]
  Herbicidal effect Scirpus juncoides: 5 (Herbicidal effect/phytotoxicity was 90% or greater)
[6]
  Herbicidal effect Monochoria vaginalis: 5 (Herbicidal effect/phytotoxicity was 90% or greater)
[7]
  Herbicidal effect Amaranthus viridis: 5 (Herbicidal effect/phytotoxicity was 90% or greater)
[8]
  Herbicidal effect Chenopodium album: 5 (Herbicidal effect/phytotoxicity was 90% or greater)
[9]
  Phytotoxicity Corn: 0 (Herbicidal effect/phytotoxicity was 0% to 10%)

## COc1cc(-c2c(Cl)n3n(c2=O)CCOCC3)c(Cl)cc1Cl [Example 1-296]
[1]
  Herbicidal effect Cyperus difformis: 5 (Herbicidal effect/phytotoxicity was 90% or greater)
[2]
  Herbicidal effect Broadleaf weed: 5 (Herbicidal effect/phytotoxicity was 90% or greater)
[3]
  Herbicidal effect Eleocharis acicularis: 5 (Herbicidal effect/phytotoxicity was 90% or greater)
[4]
  Herbicidal effect Echinochloa oryzicola: 5 (Herbicidal effect/phytotoxicity was 90% or greater)
[5]
  Herbicidal effect Scirpus juncoides: 5 (Herbicidal effect/phytotoxicity was 90% or greater)
[6]
  Herbicidal effect Monochoria vaginalis: 5 (Herbicidal effect/phytotoxicity was 90% or greater)
[7]
  Herbicidal effect Amaranthus viridis: 5 (Herbicidal effect/phytotoxicity was 90% or greater)
[8]
  Herbicidal effect Chenopodium album: 5 (Herbicidal effect/phytotoxicity was 90% or greater)
[9]
  Phytotoxicity Corn: 0 (Herbicidal effect/phytotoxicity was 0% to 10%)

## C#CCOc1cc(-c2c(Cl)n3n(c2=O)CCCC3)c(F)cc1[N+](=O)[O-] [Example 1-418]
[7]
  Herbicidal effect Amaranthus viridis: 5 (Herbicidal effect/phytotoxicity was 90% or greater)
[8]
  Herbicidal effect Chenopodium album: 5 (Herbicidal effect/phytotoxicity was 90% or greater)
[9]
  Phytotoxicity Corn: 0 (Herbicidal effect/phytotoxicity was 0% to 10%)

## CC#CCOc1cc(-c2c(Cl)n3n(c2=O)CCCC3)c(F)cc1Cl [Example 1-246]
[10]
  Herbicidal effect Amaranthus viridis: 5 (Herbicidal effect/phytotoxicity was 90% or greater)
[11]
  Herbicidal effect Abutilon theophrast: 5 (Herbicidal effect/phytotoxicity was 90% or greater)
[12]
  Herbicidal effect Chenopodium album: 5 (Herbicidal effect/phytotoxicity was 90% or greater)
[1]
  Herbicidal effect Cyperus difformis: 5 (Herbicidal effect/phytotoxicity was 90% or greater)
[2]
  Herbicidal effect Broadleaf weed: 5 (Herbicidal effect/phytotoxicity was 90% or greater)
[3]
  Herbicidal effect Eleocharis acicularis: 5 (Herbicidal effect/phytotoxicity was 90% or greater)
[4]
  Herbicidal effect Echinochloa oryzicola: 5 (Herbicidal effect/phytotoxicity was 90% or greater)
[5]
  Herbicidal effect Scirpus juncoides: 5 (Herbicidal effect/phytotoxicity was 90% or greater)
[6]
  Herbicidal effect Monochoria vaginalis: 5 (Herbicidal effect/phytotoxicity was 90% or greater)
[13]
  Phytotoxicity Corn: 1 (Herbicidal effect/phytotoxicity was 10% to 30%)
